Test: xn = mol fraction of the nth substance listed
Conditions: Liquid, Vibrating tube method

CCCCCCCCCC [decane] + CCO
Conditions	mass density [kg/m3]
313.07 K, 1000 kPa, x2 = 0.9014	753.75
313.07 K, 2000 kPa, x2 = 0.9014	754.71
313.07 K, 3000 kPa, x2 = 0.9014	755.67
313.07 K, 4000 kPa, x2 = 0.9014	756.61
313.07 K, 5000 kPa, x2 = 0.9014	757.53
313.07 K, 6000 kPa, x2 = 0.9014	758.44
313.07 K, 7000 kPa, x2 = 0.9014	759.33
313.07 K, 8000 kPa, x2 = 0.9014	760.24
313.07 K, 9000 kPa, x2 = 0.9014	761.14
313.07 K, 10000 kPa, x2 = 0.9014	762.04
313.07 K, 11000 kPa, x2 = 0.9014	762.94
313.07 K, 12000 kPa, x2 = 0.9014	763.84
313.07 K, 13000 kPa, x2 = 0.9014	764.72
313.07 K, 14000 kPa, x2 = 0.9014	765.58
313.07 K, 15000 kPa, x2 = 0.9014	766.45
313.07 K, 16000 kPa, x2 = 0.9014	767.29
313.07 K, 17000 kPa, x2 = 0.9014	768.13
313.07 K, 18000 kPa, x2 = 0.9014	768.94
313.07 K, 19000 kPa, x2 = 0.9014	769.74
313.07 K, 20000 kPa, x2 = 0.9014	770.52
313.08 K, 1000 kPa, x2 = 0.1011	715.15
313.08 K, 1000 kPa, x2 = 0.4963	724.28
313.08 K, 1000 kPa, x2 = 0.7526	738.33
313.08 K, 2000 kPa, x2 = 0.1011	716.05
313.08 K, 2000 kPa, x2 = 0.4963	725.2
313.08 K, 2000 kPa, x2 = 0.7526	739.26
313.08 K, 3000 kPa, x2 = 0.1011	716.93
313.08 K, 3000 kPa, x2 = 0.4963	726.11
313.08 K, 3000 kPa, x2 = 0.7526	740.19
313.08 K, 4000 kPa, x2 = 0.1011	717.8
313.08 K, 4000 kPa, x2 = 0.4963	727
313.08 K, 4000 kPa, x2 = 0.7526	741.1
313.08 K, 5000 kPa, x2 = 0.1011	718.66
313.08 K, 5000 kPa, x2 = 0.4963	727.87
313.08 K, 5000 kPa, x2 = 0.7526	741.99
313.08 K, 6000 kPa, x2 = 0.1011	719.51
313.08 K, 6000 kPa, x2 = 0.4963	728.73
313.08 K, 6000 kPa, x2 = 0.7526	742.87
313.08 K, 7000 kPa, x2 = 0.1011	720.34
313.08 K, 7000 kPa, x2 = 0.4963	729.58
313.08 K, 7000 kPa, x2 = 0.7526	743.75
313.08 K, 8000 kPa, x2 = 0.1011	721.16
313.08 K, 8000 kPa, x2 = 0.4963	730.44
313.08 K, 8000 kPa, x2 = 0.7526	744.64
313.08 K, 9000 kPa, x2 = 0.1011	721.98
313.08 K, 9000 kPa, x2 = 0.4963	731.3
313.08 K, 9000 kPa, x2 = 0.7526	745.53
313.08 K, 10000 kPa, x2 = 0.1011	722.8
313.08 K, 10000 kPa, x2 = 0.4963	732.16
313.08 K, 10000 kPa, x2 = 0.7526	746.41
313.08 K, 11000 kPa, x2 = 0.1011	723.63
313.08 K, 11000 kPa, x2 = 0.4963	733
313.08 K, 11000 kPa, x2 = 0.7526	747.29
313.08 K, 12000 kPa, x2 = 0.1011	724.45
313.08 K, 12000 kPa, x2 = 0.4963	733.86
313.08 K, 12000 kPa, x2 = 0.7526	748.17
313.08 K, 13000 kPa, x2 = 0.1011	725.26
313.08 K, 13000 kPa, x2 = 0.4963	734.7
313.08 K, 13000 kPa, x2 = 0.7526	749.03
313.08 K, 14000 kPa, x2 = 0.1011	726.06
313.08 K, 14000 kPa, x2 = 0.4963	735.54
313.08 K, 14000 kPa, x2 = 0.7526	749.89
313.08 K, 15000 kPa, x2 = 0.1011	726.85
313.08 K, 15000 kPa, x2 = 0.4963	736.35
313.08 K, 15000 kPa, x2 = 0.7526	750.73
313.08 K, 16000 kPa, x2 = 0.1011	727.63
313.08 K, 16000 kPa, x2 = 0.4963	737.16
313.08 K, 16000 kPa, x2 = 0.7526	751.56
313.08 K, 17000 kPa, x2 = 0.1011	728.39
313.08 K, 17000 kPa, x2 = 0.4963	737.95
313.08 K, 17000 kPa, x2 = 0.7526	752.38
313.08 K, 18000 kPa, x2 = 0.1011	729.13
313.08 K, 18000 kPa, x2 = 0.4963	738.72
313.08 K, 18000 kPa, x2 = 0.7526	753.17
313.08 K, 19000 kPa, x2 = 0.1011	729.85
313.08 K, 19000 kPa, x2 = 0.4963	739.47
313.08 K, 19000 kPa, x2 = 0.7526	753.95
313.08 K, 20000 kPa, x2 = 0.1011	730.55
313.08 K, 20000 kPa, x2 = 0.4963	740.21
313.08 K, 20000 kPa, x2 = 0.7526	754.7
313.09 K, 1000 kPa, x2 = 0.0937	715.17
313.09 K, 2000 kPa, x2 = 0.0937	716.07
313.09 K, 3000 kPa, x2 = 0.0937	716.95
313.09 K, 4000 kPa, x2 = 0.0937	717.82
313.09 K, 5000 kPa, x2 = 0.0937	718.68
313.09 K, 6000 kPa, x2 = 0.0937	719.53
313.09 K, 7000 kPa, x2 = 0.0937	720.36
313.09 K, 8000 kPa, x2 = 0.0937	721.18
313.09 K, 9000 kPa, x2 = 0.0937	721.99
313.09 K, 10000 kPa, x2 = 0.0937	722.79

Source: the NIST ThermoML archive (doi:10.1016/j.jct.2012.06.012)
